{
  "source": "patent US20130142866A1",
  "about": "“COMPOSITIONS AND METHODS FOR IMPROVED ORGAN TRANSPLANT PRESERVATION AND ACCEPTANCE” (NOVALIQ GMBH, priority 2010, published 2013)",
  "key": {"[1]": {"assay": "Solubilisation of N-octanoyl dopamine by polysorbates", "assay_type": "physicochemical", "conditions": "0.5 wt.-% polysorbate 20 or polysorbate 80 solution, aqueous with cosolvent or surfactant or cyclodextrin; 0.5 wt.-% polysorbate 20 or polysorbate 80, individually; read-out: amount of N-octanoyl dopamine solubilised", "source_text": "In one particular embodiment, the amount of amphiphilic excipient is at least about 0.05 wt.-%. According to a further embodiment, the amount is from about 0.1 wt.-% to about 30 wt.-%, or from about 0.5 wt.-% to about 20 wt.-%, respectively. […] However, if the composition is to be used as a concentrate to be added to a commercial solution for tissue and organ preservation, the concentrate itself may also comprise the amphiphilic excipient at a relatively high concentration, taking into account the dilution factor. In a further embodiment, the ratio of N-octanoyl dopamine to the amphiphilic excipient is selected in the range from about 5:1 to about 1:50."}, "[2]": {"assay": "Compatibility with organ preservation solutions (UW, HTK)", "assay_type": "physicochemical", "conditions": "usual behaviour, leading to brownish-pink colour", "experimental": "Two samples of the formulation of example 4 having a N-octanoyl dopamine concentration of 11.16 mg/mL were individually mixed with either University of Wisconsin solution (Viaspan, or UW) or histidine-tryptophan-ketoglutarate (HTK) solution (Custodiol) at a volume ratio of 1:4 (1 part of the inventive composition plus 4 parts of the conventional solution)."}, "[3]": {"system": "Human umbilical vein endothelial cells (HUVEC) stimulated with TNF-α", "assay": "TNF-α-mediated inflammation in HUVEC (gene expression profiling, qPCR, Western blotting, NF-κB activation)", "assay_type": "cell-based", "experimental": "Human umbilical vein endothelial cells (HUVEC) were stimulated with TNF-α (tumour-necrosis-factor alpha) in the absence or presence of various concentrations of the N-octanoyl dopamine formulation. Affymetrix Gene Expression Profiling, quantitative PCR, Western-blotting and NF-κB activation were performed to assess the anti-inflammatory potential of the composition of the invention. As a comparator, a surfactant-free aqueous dispersion of N-octanoyl dopamine, which is not an embodiment of the invention, was also tested."}, "freshly isolated T-cells": {"system": "freshly isolated T-cells", "assay": "T-cell proliferation, anti-CD3/anti-CD28 activation, 3H-thymidine incorporation", "assay_type": "cell-based", "experimental": "A cell-culture system was used in which freshly isolated T-cells were polyclonally activated by anti-CD3/anti-CD28 beads. The cells were allowed to proliferate for at least 10 days in the presence or absence of different dilutions of the composition of the invention. T-cell proliferation was assessed on day 3, 5, 7 and 10 by means of 3H-thymidine incorporation. In this model, T-cell proliferation is maximal at day 3 and gradually declines at day 10.\nThe experiments were repeated, except that freshly isolated T-cells were stimulated with anti-CD3/antio-CD28 antibodies in the presence of the composition diluted to a concentration of 50 μM of N-octanoyl dopamine and various concentrations of ciclosporin A or tacrolimus. Similar concentrations of ciclosporin A or tacrolimus were also tested in the absence of the composition."}, "Cardiomyocytes": {"system": "Cardiomyocytes", "assay": "Cold storage injury of cardiomyocytes (ATP, LDH release, contraction rate)", "assay_type": "cell-based, rats", "experimental": "Cardiomyocytes were freshly isolated from new born rats and cultured for 3 days. […] ATP levels and LDH release was measured after 8 hours of cold preservation and hereafter cardiomyocytes were re-warmed and the contraction rate per well and ATP regeneration were determined."}},
  "note": "Entries after “also recorded” stand apart in the source; their conditions may differ.",
  "data": [
    {"smiles": "CCCCCCCC(=O)NCCc1ccc(O)c(O)c1", "note": "[N-octanoyl dopamine, N-octanoyl-4-(2-aminoethyl)benzene-1,2-diol]", "values": [
      {"measurement": "solubility", "setting": "[1]", "result": 40, "unit": "mM"},
      {"measurement": "oxidation of N-octanoyl dopamine when mixed with UW or HTK", "setting": "[2]", "result": "occurs very rapidly"},
      {"measurement": "HO-1 expression", "setting": "[3]", "result": "strongly upregulated"},
      {"measurement": "concentration at which HO-1 was significantly induced", "setting": "[3]", "result": 1, "unit": "µM"},
      {"measurement": "concentration required for inhibition of VCAM-1 expression", "setting": "[3]", "result": 50, "unit": "µM"},
      {"measurement": "T-cell proliferation", "setting": "freshly isolated T-cells; 25 μM N-octanoyl dopamine", "result": "without effect"},
      {"measurement": "T-cell proliferation", "setting": "freshly isolated T-cells; 50 μM N-octanoyl dopamine", "result": "inhibited T-cell proliferation at day 3; also recorded: only partly inhibited T-cell proliferation at day 3 but not thereafter"},
      {"measurement": "reduction of the amount of calcineurin inhibitor required for complete T-cell suppression", "setting": "freshly isolated T-cells; 50 μM N-octanoyl dopamine", "result": "at least 1000 fold"},
      {"measurement": "T-cell proliferation", "setting": "freshly isolated T-cells; 100 μM N-octanoyl dopamine", "result": "inhibited at day 3, day 5 and partly at day 7"},
      {"measurement": "NFκB and AP-1 in T-cells", "setting": "freshly isolated T-cells; downstream of early T-cell receptor signalling events", "result": "inhibition"},
      {"measurement": "inhibition of T-cell proliferation after oxidation / without redox activity", "setting": "freshly isolated T-cells; oxidation of N-octanoyl dopamine, or compounds lacking redox activity", "result": "abrogated"}
    ]},
    {"smiles": "NCCc1ccc(O)c(O)c1", "note": "[dopamine]", "values": [
      {"measurement": "LDH-release after cold storage", "setting": "Cardiomyocytes; 8 hours at 4° C., FIG. 2", "result": "inhibited"},
      {"measurement": "ATP level after cold storage", "setting": "Cardiomyocytes; 8 hours at 4° C., compared with untreated cells, FIG. 1", "result": "dose-dependent mitigation of ATP loss"},
      {"measurement": "regeneration of ATP after re-warming", "setting": "Cardiomyocytes; after 8 hours at 4° C., compared to untreated cells", "result": "much faster"},
      {"measurement": "contraction rate after re-warming", "setting": "Cardiomyocytes; after 8 hours at 4° C., treated cells", "result": "significantly improved rate"}
    ]},
    {"smiles": "C=CC[C@@H]1/C=C(\\C)C[C@H](C)C[C@H](OC)[C@H]2O[C@@](O)(C(=O)C(=O)N3CCCC[C@H]3C(=O)O[C@H](/C(C)=C/[C@@H]3CC[C@@H](O)[C@H](OC)C3)[C@H](C)[C@@H](O)CC1=O)[C@H](C)C[C@@H]2OC", "note": "[tacrolimus, reference compound]", "values": [
      {"measurement": "concentration of maximal inhibition of T-cell proliferation", "setting": "freshly isolated T-cells; calcineurin inhibitor alone, absence of the composition", "result": 1, "unit": "µM"},
      {"measurement": "ciclosporin A or tacrolimus concentration still giving complete inhibition of T-cell proliferation", "setting": "freshly isolated T-cells; in the presence of 50 μM N-octanoyl dopamine", "result": 1, "unit": "nM"}
    ]}
  ]
}
